# Laboratory results: patent US6982348B2, “Aminoethanol derivatives” (Takeda Pharmaceutical Company Limited, priority 2001, dated 2006)
row,SMILES,melting point
1,"O=C(N[C@H](Cc1ccc(OC(F)(F)F)cc1)[C@@H](O)c1ccc(F)cc1)c1cccc2c1C=CCCC2 (racemic) [Example 135, N-[(1RS,2SR)-2-(4-fluorophenyl)-2-hydroxy-1-[4-(trifluoromethoxy)benzyl]ethyl]-6,7-dihydro-5H-benzo[a]cycloheptene-1-carboxamide]",202 to 203 °C
2,"O=C(N[C@H](Cc1cccc(C(F)(F)F)c1)[C@@H](O)c1ccc(F)cc1)c1cccc2ccccc12 (racemic) [Example 136, N-((1RS,2SR)-2-(4-fluorophenyl)-2-hydroxy-1-((3-(trifluoromethyl)phenyl)methyl)ethyl)-1-naphthalenecarboxamide]",158 to 159 °C
3,"O=C(N[C@H](Cc1cccc(C(F)(F)F)c1)[C@@H](O)c1ccc(F)cc1)c1ccc(F)c2ccccc12 (racemic) [Example 137, 4-fluoro-N-((1RS,2SR)-2-(4-fluorophenyl)-2-hydroxy-1-((3-(trifluoromethyl)phenyl)methyl)ethyl)-1-naphthalenecarboxamide]",193 to 194 °C
4,"O=C(N[C@H](Cc1cccc(C(F)(F)F)c1)[C@@H](O)c1ccc(F)cc1)C1CCCCC1 (racemic) [Example 138, N-((1RS,2SR)-2-(4-fluorophenyl)-2-hydroxy-1-((3-(trifluoromethyl)phenyl)methyl)ethyl)cyclohexanecarboxamide]",190 to 191 °C
5,"O=C(CCCc1ccccc1)N[C@H](Cc1cccc(C(F)(F)F)c1)[C@@H](O)c1ccc(F)cc1 (racemic) [Example 139, N-((1RS,2SR)-2-(4-fluorophenyl)-2-hydroxy-1-((3-(trifluoromethyl)phenyl)methyl)ethyl)-4-phenylbutyramide]",110 to 111 °C
6,"O=C(N[C@H](Cc1ccccc1C(F)(F)F)[C@@H](O)c1ccc(F)cc1)c1cccc2ccccc12 (racemic) [Example 140, N-((1RS,2SR)-2-(4-fluorophenyl)-2-hydroxy-1-((2-(trifluoromethyl)phenyl)methyl)ethyl)-1-naphthalenecarboxamide]",193 to 194 °C
7,"O=C(N[C@H](Cc1ccccc1C(F)(F)F)[C@@H](O)c1ccc(F)cc1)c1ccc(F)c2ccccc12 (racemic) [Example 141, 4-fluoro-N-((1RS,2SR)-2-(4-fluorophenyl)-2-hydroxy-1-((2-(trifluoromethyl)phenyl)methyl)ethyl)-1-naphthalenecarboxamide]",200 to 201 °C
8,"O=C(N[C@H](Cc1ccccc1C(F)(F)F)[C@@H](O)c1ccc(F)cc1)C1CCCCC1 (racemic) [Example 142, N-((1RS,2SR)-2-(4-fluorophenyl)-2-hydroxy-1-((2-(trifluoromethyl)phenyl)methyl)ethyl)cyclohexanecarboxamide]",216 to 217 °C
9,"O=C(CCCc1ccccc1)N[C@H](Cc1ccccc1C(F)(F)F)[C@@H](O)c1ccc(F)cc1 (racemic) [Example 143, N-((1RS,2SR)-2-(4-fluorophenyl)-2-hydroxy-1-((2-(trifluoromethyl)phenyl)methyl)ethyl)-4-phenylbutyramide]",161 to 162 °C
10,"O=C(N[C@H](Cc1ccc(F)cc1)[C@@H](O)c1ccc(F)cc1)c1cccc2ccccc12 (racemic) [Example 144, N-((1RS,2SR)-2-(4-fluorophenyl)-1-((4-fluorophenyl)methyl)-2-hydroxyethyl)-1-naphthalenecarboxamide]",199 to 200 °C
11,"O=C(N[C@H](Cc1ccc(F)cc1)[C@@H](O)c1ccc(F)cc1)C1CCCCC1 (racemic) [Example 146, N-((1RS,2SR)-2-(4-fluorophenyl)-1-((4-fluorophenyl)methyl)-2-hydroxyethyl)cyclohexanecarboxamide]",203 to 204 °C
12,"O=C(CCCc1ccccc1)N[C@H](Cc1ccc(F)cc1)[C@@H](O)c1ccc(F)cc1 (racemic) [Example 147, N-((1RS,2SR)-2-(4-fluorophenyl)-1-((4-fluorophenyl)methyl)-2-hydroxyethyl)-4-phenylbutyramide]",147 to 148 °C
13,"COc1ccc(C[C@@H](NC(=O)c2cccc3ccccc23)[C@@H](O)c2ccc(F)cc2)cc1 (racemic) [Example 148, N-((1RS,2SR)-2-(4-fluorophenyl)-2-hydroxy-1-((4-(methyloxy)phenyl)methyl)ethyl)-1-naphthalenecarboxamide]",198 to 199 °C
14,"COc1ccc(C[C@@H](NC(=O)c2ccc(F)c3ccccc23)[C@@H](O)c2ccc(F)cc2)cc1 (racemic) [Example 149, 4-fluoro-N-((1RS,2SR)-2-(4-fluorophenyl)-2-hydroxy-1-((4-(methyloxy)phenyl)methyl)ethyl)-1-naphthalenecarboxamide]",210 to 211 °C
15,"COc1ccc(C[C@@H](NC(=O)C2CCCCC2)[C@@H](O)c2ccc(F)cc2)cc1 (racemic) [Example 150, N-((1RS,2SR)-2-(4-fluorophenyl)-2-hydroxy-1-((4-(methyloxy)phenyl)methyl)ethyl)cyclohexanecarboxamide]",193 to 194 °C
16,"COc1ccc(C[C@@H](NC(=O)CCCc2ccccc2)[C@@H](O)c2ccc(F)cc2)cc1 (racemic) [Example 151, N-((1RS,2SR)-2-(4-fluorophenyl)-2-hydroxy-1-((4-(methyloxy)phenyl)methyl)ethyl)-4-phenylbutyramide]",130 to 131 °C
17,"CC(C)(C)OC(=O)N[C@H](Cc1ccc(C#N)cc1)[C@@H](O)c1ccc(F)cc1 (racemic) [Example 152, tert-butyl N-[(1RS,2SR)-1-(4-cyanobenzyl)-2-(4-fluorophenyl)-2-hydroxyethyl]carbamate]",203 to 204 °C
18,"N#Cc1ccc(C[C@@H](NC(=O)c2ccc(F)c3ccccc23)[C@@H](O)c2ccc(F)cc2)cc1 (racemic) [Example 153, N-[(1RS,2SR)-1-(4-cyanobenzyl)-2-(4-fluorophenyl)-2-hydroxyethyl]-4-fluoronaphthalene-1-carboxamide]",248 to 249 °C
19,"CC(C)c1ccc(C[C@@H](NC(=O)c2ccc(F)c3ccccc23)[C@@H](O)c2ccc(F)cc2)cc1 (racemic) [Example 154, 4-fluoro-N-[(1RS,2SR)-2-(4-fluorophenyl)-2-hydroxy-1-(4-isopropylbenzyl)ethyl]naphthalene-1-carboxamide]",189 to 192 °C
20,"O=C(N[C@H](Cc1ccc(C(F)(F)F)c(F)c1)[C@@H](O)c1ccc(F)cc1)c1ccc(F)c2ccccc12 (racemic) [Example 156, N-((1RS,2SR)-2-(4-fluorophenyl)-1-((3-fluoro-4-(trifluoromethyl)phenyl)methyl)-2-hydroxyethyl)-4-fluoro-1-naphthalenecarboxamide]",212 to 213 °C
21,"O=C(CCc1ccccc1)N[C@H](Cc1ccc(C(F)(F)F)c(F)c1)[C@@H](O)c1ccc(F)cc1 (racemic) [Example 157, N-((1RS,2SR)-2-(4-fluorophenyl)-1-((3-fluoro-4-(trifluoromethyl)phenyl)methyl)-2-hydroxyethyl)-3-phenylpropanamide]",126 to 127 °C
22,"O=C(N[C@H](Cc1cccc(Oc2ccccc2)c1)[C@@H](O)c1ccc(F)cc1)c1ccc(F)c2ccccc12 (racemic) [Example 160, 4-fluoro-N-((1RS,2SR)-2-(4-fluorophenyl)-2-hydroxy-1-((3-(phenyloxy)phenyl)methyl)ethyl)-1-naphthalenecarboxamide]",120 to 121 °C
23,"O=C(N[C@H](Cc1ccc(C(F)F)cc1)[C@@H](O)c1ccc(F)cc1)c1ccc(F)c2ccccc12 (racemic) [Example 165, N-[(1RS,2SR)-1-[4-(difluoromethyl)benzyl]-2-(4-fluorophenyl)-2-hydroxyethyl]-4-fluoronaphthalene-1-carboxamide]",212 to 213 °C
24,"CC(F)(F)c1ccc(C[C@@H](NC(=O)c2ccc(F)c3ccccc23)[C@@H](O)c2ccc(F)cc2)cc1 (racemic) [Example 166, N-[(1RS,2SR)-1-[4-(1,1-difluoroethyl)benzyl]-2-(4-fluorophenyl)-2-hydroxyethyl]-4-fluoronaphthalene-1-carboxamide]",220 to 221 °C
25,"O=C(N[C@H](Cc1ccc2c(c1)OC(F)(F)O2)[C@@H](O)c1ccc(F)cc1)c1ccc(F)c2ccccc12 (racemic) [Example 167, N-[(1RS,2SR)-1-[(2,2-difluoro-1,3-benzodioxol-5-yl)methyl]-2-(4-fluorophenyl)-2-hydroxyethyl]-4-fluoronaphthalene-1-carboxamide]",219 to 220 °C
26,"CC(C)(C)OC(=O)N[C@H](Cc1cnc(C(F)(F)F)s1)[C@@H](O)c1ccc(F)cc1 (racemic) [Example 168, tert-butyl N-[(1RS,2SR)-2-(4-fluorophenyl)-2-hydroxy-1-[[2-(trifluoromethyl)-1,3-thiazol-5-yl]methyl]ethyl]carbamate]",137 to 138 °C
27,"O=C(N[C@H](Cc1cnc(C(F)(F)F)s1)[C@@H](O)c1ccc(F)cc1)c1ccc(F)c2ccccc12 (racemic) [Example 169, 4-fluoro-N-[(1RS,2SR)-2-(4-fluorophenyl)-2-hydroxy-1-[[2-(trifluoromethyl)-1,3-thiazol-5-yl]methyl]ethyl]naphthalene-1-carboxamide]",197 to 198 °C
28,"O=C(N[C@H](Cc1cccc(OCC(F)(F)F)c1)[C@@H](O)c1ccc(F)cc1)c1ccc(F)c2ccccc12 (racemic) [Example 170, N-((1RS,2SR)-2-(4-fluorophenyl)-2-hydroxy-1-((3-(2,2,2-trifluoroethoxy)phenyl)methyl)ethyl)-4-fluoro-1-naphthalenecarboxamide]",192 to 193 °C
29,"O=C(N[C@H](Cc1cccc(OCC(F)(F)C(F)F)c1)[C@@H](O)c1ccc(F)cc1)c1ccc(F)c2ccccc12 (racemic) [Example 172, N-((1RS,2SR)-2-(4-fluorophenyl)-2-hydroxy-1-((3-(2,2,3,3-tetrafluoropropyloxy)phenyl)methyl)ethyl)-4-fluoro-1-naphthalenecarboxamide]",160 to 161 °C
30,"O=C(N[C@H](Cc1ccc(C(F)(F)F)cc1)[C@@H](O)c1ccccc1)c1ccc(F)c2ccccc12 (racemic) [Example 174, 4-fluoro-N-((1RS,2SR)-2-hydroxy-2-phenyl-1-((4-(trifluoromethyl)phenyl)methyl)ethyl)-1-naphthalenecarboxamide]",217 to 218 °C
